Data as given in article PMC9592910, “Tissue distribution and integrated pharmacokinetic properties of major effective constituents of oral Gegen-Qinlian decoction in mice” (Frontiers in Pharmacology, 2022).
Marks after values point to notes of the source that are not given here.

Assays:
Assay type in all cases: in vivo, Kunming mice
[1] = Pharmacokinetics of GQD constituents in the portal vein of mice after oral GQD; details: for AUC(0-t): read-out: AUC0–24 h
Description: (§1) Fifty-four Kunming mice were randomly divided into nine groups according to body weight and gender (3 male and three female in each group). Each group was orally administered with water solution (0.2 ml/10 g body weight) of the GQD extract powder at the dosage of 6.1 g/kg body weight. The dosage of GQD extract powder equals to 18 g/kg herbal pieces of GQD, which is equivalent to its clinical dosage. At each designed time point (0.08, 0.25, 0.5, 1, 2, 4, 8, 12, and 24 h) after oral administration, six mice were anesthetized with ether, and blood was collected from the portal vein (about 0.2 ml, aspirated in a 1 ml heparinized syringe) and then the systemic circulation (about 0.2 ml, collected in heparinized tubes after removal of the eyeball) of the mice to prepare plasma samples, and the livers and the colons were removed to prepare respective homogenate. After pretreatment, the concentrations of 19 major constituents of GQD in each sample were measured by the validated LC-MS/MS method (see “2.3”). Then the C-T curves of the constituents in the plasma and the tissue homogenates were respectively drawn and their pharmacokinetic parameters were respectively calculated.
(§2) It should be noted that the pharmacokinetic parameters of a GQD constituent was calculated based on its average concentration in six mice at each time point. The results were expressed as mean ± SD.

[2] = Pharmacokinetics/tissue distribution of GQD constituents in the livers of mice after oral GQD; details: for Kp: both sexes
Description: (§3) The liver and the colon homogenates were prepared with 10 times (V: W) the volume of ascorbic acid solution (200 μg/ml). Then the homogenates were pretreated as plasma to obtain the tissue samples for LC-MS/MS analysis. Fifty-four Kunming mice were randomly divided into nine groups according to body weight and gender (3 male and three female in each group). […] Then the C-T curves of the constituents in the plasma and the tissue homogenates were respectively drawn and their pharmacokinetic parameters were respectively calculated. […] It should be noted that the pharmacokinetic parameters of a GQD constituent was calculated based on its average concentration in six mice at each time point. The results were expressed as mean ± SD.

[3] = Pharmacokinetics/tissue distribution of GQD constituents in the colons of mice after oral GQD
Description: as §3

[4] = Pharmacokinetics of GQD constituents in the systemic circulation of mice after oral GQD; details: for half-life / Tmax / Cmax / MRT / AUC(0-t): both, Kunming; for Cmax / MRT / AUC(0-t): oral GQD 6.1 g/kg; for AUC(0-t): read-out: AUC0–24 h
Description: as §1, §2

[5] = both, Kunming, mouse, portal vein plasma, po, […], portal vein plasma, mice, oral GQD extract […], read-out: Tmax
[6] = both, Kunming, mouse, portal vein plasma, mice, oral GQD extract 6.1 g/kg
[7] = both, Kunming, mouse, portal vein plasma, mice, oral GQD extract 6.1 g/kg, read-out: T1/2 (converted)
[8] = both, Kunming, mouse, liver (homogenate), po, […], liver, mice, oral GQD extract […], read-out: T1/2 (converted)
[9] = both, Kunming, mouse, liver (homogenate), liver, mice, oral GQD extract 6.1 g/kg
[10] = both, Kunming, mouse, liver (homogenate), liver, mice, oral GQD extract 6.1 g/kg, read-out: Tmax
[11] = liver, mice, oral GQD extract […]
[12] = both, Kunming, mouse, colon (homogenate), po, […], colon, mice, oral GQD extract […], read-out: T1/2 (converted)
[13] = both, Kunming, mouse, colon (homogenate), colon, mice, oral GQD extract 6.1 g/kg
[14] = both, Kunming, mouse, colon (homogenate), colon, mice, oral GQD extract 6.1 g/kg, read-out: Tmax
[15] = colon, mice, oral GQD extract […]
[16] = mouse, systemic circulation plasma, po, […], systemic circulation plasma, mice, oral GQD […], read-out: T1/2 (converted)
[17] = mouse, systemic circulation plasma, po, […], systemic circulation plasma, mice, oral GQD […], read-out: Tmax
[18] = mouse, systemic circulation plasma, mice
[19] = portal vein plasma, mice, oral GQD extract […]
[20] = both, Kunming, mouse, in vivo, po, […]
[21] = both, Kunming, mouse, in vivo, po, […], T1/2

| SMILES | Tmax [1, 5] [h] | Cmax [1, 6] [ng/mL] | MRT [1, 6] [h] | AUC(0-t) [1, 6] [ng·h/mL] | half-life [1, 7] [min] | half-life [2, 8] [min] | Cmax [2, 9] [ng/g] | MRT [2, 9] [h] | Tmax [2, 10] [h] | half-life [3, 12] [min] | Cmax [3, 13] [ng/g] | MRT [3, 13] [h] | Tmax [3, 14] [h] | T1/2 [3, 15] [h] | other results |
| --- | --- | --- | --- | --- | --- | --- | --- | --- | --- | --- | --- | --- | --- | --- | --- |
| COc1cc2c(cc1OC)-c1cc3ccc4c(c3c[n+]1CC2)OCO4 [Epiberberine, epiberberine] | – | – | – | – | – | – | – | – | – | – | – | – | – | – | T1/2 ([1]; mouse, in vivo, po, […]): 5.6 h; AUC0–24 h liv/AUC0–24 h cir ([2]; mouse, in vivo, po): 9.9; AUC0–24 h liv/AUC0–24 h por ([2]; mouse, in vivo, po): 3.8; T1/2 ([3]; mouse, in vivo, po, […]): 3.3 h |
| CC1(C)[C@@H](O)CC[C@]2(C)[C@H]3C(=O)C=C4[C@@H]5C[C@@](C)(C(=O)O)CC[C@]5(C)CC[C@@]4(C)[C@]3(C)CC[C@@H]12 [Glycyrrhetinic acid, glycyrrhetinic acid] | 4 | 643 | 7 | 5330 | 282 | 360 to 420 | 910 | 8.6 | 4 | 240 to 300 | 1830 | 7 | 4 | 4.4 | T1/2 [2, 11]: 6.6# h; half-life [4, 16]: ~360 min; Tmax [4, 17]: 240 min; Cmax [4, 18]: 196 ng/mL; MRT [4, 18]: 8.4 h; AUC(0-t) [4, 18]: 2120 ng·h/mL; T1/2 ([4]; systemic circulation plasma, mice, oral GQD […]): 6.2# h |
| CC1(C)[C@@H](O[C@H]2O[C@H](C(=O)O)[C@@H](O)[C@H](O)[C@H]2O[C@@H]2O[C@H](C(=O)O)[C@@H](O)[C@H](O)[C@H]2O)CC[C@]2(C)[C@H]3C(=O)C=C4[C@@H]5C[C@@](C)(C(=O)O)CC[C@]5(C)CC[C@@]4(C)[C@]3(C)CC[C@@H]12 [Glycyrrhizic acid, glycyrrhizic acid] | 2 | 77.1 | 3.7 | 422 | 174 | 228 | 148 | 2.8 | 1 | 180 to 240 | 2010 | 4.8 | 2 | 3.3 | – |
| COc1cc2c(cc1O)CC[n+]1cc3c(OC)c(OC)ccc3cc1-2 [Jatrorrhizine, jatrorrhizine] | 4 | 16.6 | 4.8 | 116 | 378 | 144 | 136 | 6.6 | 4 | 300 | 2100 | 6.2 | 4 | – | half-life [4, 16]: 258 min; Tmax [4, 17]: 4.8 min; Cmax [4, 18]: 10.1 ng/mL; MRT [4, 18]: 3.9 h; AUC(0-t) [4, 18]: 26.3 ng·h/mL |
| O=C1C[C@@H](c2ccc(O)cc2)Oc2cc(O)ccc21 [Liquiritigenin, liquiritigenin] | – | – | – | – | – | – | – | – | – | – | – | – | – | 3.4 | T1/2 [1, 19]: 5.9 h; Tmax [1, 19]: 2.0 h; Tmax [2, 11]: 0.25 h; Tmax [3, 15]: 4.0 h |
| O=C1C[C@@H](c2ccc(O[C@@H]3O[C@H](CO)[C@@H](O)[C@H](O)[C@H]3O)cc2)Oc2cc(O)ccc21 [Liquiritin, liquiritin] | – | – | – | – | – | – | – | – | – | – | – | – | – | – | half-life [1, 20]: 150 min; Tmax ([1]; both, Kunming, mouse, in vivo, po, […], Tmax): 0.25 h; Kp ([2]; Kunming, mouse, in vivo, po, AUC0–24 h liv/AUC0–24 h cir): ~5; Kp ([2]; Kunming, mouse, in vivo, po, AUC0–24 h liv/AUC0–24 h por): 2.4; AUC0–24 h liv/AUC0–24 h cir ([2]; both, Kunming, mouse, in vivo, po): 5.1; Tmax [2, 20]: 4 h; half-life [2, 21]: 1180 min; Tmax [3, 20]: 0.5 h; half-life [3, 21]: 1170 min; half-life ([4]; mouse, in vivo, po, […], T1/2): 90 min; Tmax ([4]; mouse, in vivo, po, […], Tmax): 15 min |
| COc1c(O[C@@H]2O[C@H](C(=O)O)[C@@H](O)[C@H](O)[C@H]2O)cc(O)c2c(=O)cc(-c3ccccc3)oc12 [Wogonoside, wogonoside] | – | – | – | – | – | – | – | – | – | – | – | – | – | – | T1/2 ([1]; mouse, in vivo, po, […]): 2.6 h; AUC0–24 h liv/AUC0–24 h cir ([2]; mouse, in vivo, po): 0.15; AUC0–24 h liv/AUC0–24 h por ([2]; mouse, in vivo, po): 0.03; T1/2 ([2]; mouse, in vivo, po, […]): 16.2 h; T1/2 ([4]; mouse, in vivo, po, […]): 3.9 h |
